pIC50: −log10 of the molar value.
How the values were obtained:
[1] = tested on: HUV-EC-C cells (human umbilical vein endothelial cells); experiment: HUV-EC-C Assay, VEGF-stimulated [3H] thymidine incorporation; type: cell-based; conditions: Mitogenesis in Endothelial Cells
EpH4-VEGF = experiment: Xenograft Assay 2: FLK-1/Xenograft Model, subcutaneous xenograft (In Vivo Data, EpH4-VEGF); parameters: species or system mice
Procedure: Assay 2: FLK-1/Xenograft Model
The ability of the compounds of the present invention to inhibit ovarian, melanoma, prostate, lung and mammary tumor cell lines established as SC xenografts was examined. These studies were conducted using doses ranging from 1 to 75 mg/kg/day.
Materials And Methods. The tumor cells were implanted subcutaneously into the indicated strains of mice. Treatment was initiated on day 1 post implantation unless otherwise indicated (e.g. treatment of the SCID mouse related to the A375 melanoma cell line began on Day 9). Eight (8) to sixteen (16) mice comprised each test group.
Animals. Female athymic mice (BALB/c, nu/nu), BALB/c mice, Wistar rats and Fisher 344 rats were obtained from Simonsen Laboratories (Gilroy, Calif.). Female A/I mice were obtained from Jackson Laboratory (Bar Harbor, Me.). DA rats were obtained from B&K Universal, Inc. (Fremont, Calif.). Athymic R/Nu rats, DBA/2N mice, and BALB/c mice were obtained from Harlan Sprague Dawley (Indianapolis, Ind.). Female C57BU6 mice were obtained from Taconic (Germantown, N.Y.). All animals were maintained under clean-room conditions in Micro-isolator cages with Alpha-dri bedding. They received sterile rodent chow and water ad libitum.
All procedures were conducted in accordance with the NIH Guide for the Care and Use Of Laboratory Animals.
Subcutaneous Xenograft Model. Cell lines were grown in appropriate medium as described. Cells were harvested at or near confluency with 0.05% Trypsin-EDTA and pelleted at 450×g for 10 min. Pellets were resuspended in sterile PBS or media (without FBS) to a suitable concentration indicated in the Figure legends and the cells were implanted into the hindflank of mice. Tumor growth-was measured over 3 to 6 weeks using venier calipers and tumor volumes were calculated as a product of length x width x height unless otherwise indicated. P values were calculated using the Students' t-test.
Different concentrations of a compound in 50-100 μl excipient (dimethylsulfoxide, PBTE, PBTE6C:D5W, or PBTE:D5W) were delivered by IP injection.
Results for various compounds obtained from the above-described in vivo assays are set forth at Table 5, below: […]

[2] = tested on: HUV-EC-C cells (human umbilical vein endothelial cells); experiment: HUV-EC-C Assay, a-FGF (ECGF)-stimulated [3H] thymidine incorporation; type: cell-based; conditions: Mitogenesis in Endothelial Cells
Procedure: The following protocol may also be used to measure the composition's activity:
1. […] After cells have detached from the flask, add an equal volume of assay medium and transfer to a 50 ml sterile centrifuge tube (Fisher Scientific; catalogue no. 05-539-6).
2. Wash the cells with about 35 ml assay medium in the 50 ml sterile centrifuge, tube by adding the assay medium, centrifuge for 10 minutes at approximately 200× g, aspirate the supernatant, and resuspend with 35 ml D-PBS. Repeat the wash two more times with D-PBS, resuspend the cells in about 1 ml assay medium/15 cm^2 of tissue culture flask. Assay medium consists of F12K medium (Gibco BRL; catalogue no. 21127-014)+0.5% heat-inactivated fetal bovine serum. Count the cells with a Coulter Counter.RTM.v Coulter Electronics, Inc.) and add assay medium to the cells to obtain a concentration of 0.8-1.0×10^5 cells/ml.
3. Add cells to 96-well flat-bottom plates at 100 μl/well or 0.8-1.0×10^4 cells/well; incubate about 24 h at 37° C., 5% CO2.
1. Make up two-fold drug titrations in separate 96-well plates, generally 50 μM on down to 0 μM. Use the same assay medium as mentioned in day 0, step 2 above. Titrations are made by adding […] of drug at 200 μM (4× the final well concentration) to the top well of a particular plate column. Since the stock drug concentration is usually 20 mM in DMSO, the 200 μM drug concentration contains 2% DMSO. Therefore, diluent made up to 2% DMSO in assay medium (F12K+0.5% fetal bovine serum) is used as diluent for the drug titrations in order to dilute the drug but keep the DMSO concentration constant. Add this diluent to the remaining wells in the column at 60 μl/well. Take 60 μl from the 120 μl of 200 μM drug dilution in the top well of the column and mix with the 60 μl in the second well of the column. Take 60 μl from this well and mix with the 60 μl in the third well of the column, and so on until two-fold titrations are completed. When the next-to-the-last well is mixed, take 60 μl of the 120 μl in this well and discard it. Leave the last well with 60 μl of DMSO/media diluent as a non-drug-containing control. Make 9 columns of titrated drug, enough for triplicate wells each for 1) VEGF (obtained from Pepro Tech Inc., catalogue no. 100-200, 2) endothelial cell growth factor (ECGF) (also known as acidic fibroblast growth factor, or aFGF) (obtained from Boehringer Mannheim Biochemica, catalogue no. 1439 600), and assay media control. ECGF comes as a preparation with sodium heparin.
2. Transfer 50 μl/well of the drug dilutions to the 96-well assay plates containing the 0.8-1.0×10^4 cells/100 μl/well of the HUV-EC-C cells from day 0 and […] incubate ~2 h at 37° C., 5% CO2.
3. In triplicate, add 50 μl/well of 80 ng/ml VEGF, 20 ng/ml ECGF, or media control to each drug condition. As with the drugs, the growth factor concentrations are 4× the desired final concentration. Use the assay media from day 0 step 2 to make the concentrations of growth factors. Incubate approximately 24 hours at 37° C., 5% CO2. Each well will have 50 μl drug dilution, 50 μl growth factor or media, and 100 ul cells,=200 ul/well total. Thus the 4× concentrations of drugs and growth factors become 1× once everything has been added to the wells.
1. Add ^3H-thymidine (Amersham; catalogue no. TRK-686) at 1 μCi/well (10 μl/well of 100 μCi/ml solution made up in RPMI media+10% heat-inactivated fetal bovine serum) and incubate about 24 h at 37° C., 5% CO2.
Note: ^3H-thymidine is made up in RPMI media because all of the other applications for which we use the ^3H-thymidine involve experiments done in RPMI. The media difference at this step is probably not significant. RPMI was obtained from Gibco BRL, catalogue no. 11875-051.
1. Freeze plates overnight at −20° C.
1. Thaw plates and harvest with a 96-well plate harvester (Tomtec Harvester 96.RTM.) onto filter mats (Wallac; catalogue no. 1205-401); read counts on a Wallac Betaplate™ liquid scintillation counter.

FLK-1 receptor = target: T1, FLK-1 receptor (Mus musculus, UniProt P35918); experiment: FLK-1 ELISA (kinase activity of the FLK-1 receptor in FLK-1/NIH3T3 cells); type: cell-based; conditions: ELISA Assay Results, VEGF stimulation
T1 construct: expressed in transfected cells; host or cells: NIH3T3 C7#3 (FLK-1/NIH3T3)

HER2 kinase = target: T2, HER2 kinase (Homo sapiens, UniProt P04626); experiment: HER-2 ELISA Assay 1: EGF Receptor-HER2 Chimeric Receptor Assay In Whole Cells; type: cell-based; conditions: ELISA Assay Results
T2 construct: fused on or other part: The EGFR extracellular domain serves for EGF stimulation and for capture by mAb 05-101; The HER2 part carries the kinase domain; P00533 (Epidermal growth factor receptor)

FGFR = experiment: FGF ligand-induced BrdU incorporation, mitogenesis in 3T3/EGFR cells; type: cell-based

T2 sequence (P04626 720-987 limits assumed): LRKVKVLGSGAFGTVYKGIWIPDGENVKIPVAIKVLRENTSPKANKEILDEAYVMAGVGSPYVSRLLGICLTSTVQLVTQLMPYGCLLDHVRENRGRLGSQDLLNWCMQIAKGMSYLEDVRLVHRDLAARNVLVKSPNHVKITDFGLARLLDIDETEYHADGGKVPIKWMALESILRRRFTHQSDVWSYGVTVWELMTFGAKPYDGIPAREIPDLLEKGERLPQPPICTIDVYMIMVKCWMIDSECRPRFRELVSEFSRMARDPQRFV
T1 sequence (P35918 20-1345): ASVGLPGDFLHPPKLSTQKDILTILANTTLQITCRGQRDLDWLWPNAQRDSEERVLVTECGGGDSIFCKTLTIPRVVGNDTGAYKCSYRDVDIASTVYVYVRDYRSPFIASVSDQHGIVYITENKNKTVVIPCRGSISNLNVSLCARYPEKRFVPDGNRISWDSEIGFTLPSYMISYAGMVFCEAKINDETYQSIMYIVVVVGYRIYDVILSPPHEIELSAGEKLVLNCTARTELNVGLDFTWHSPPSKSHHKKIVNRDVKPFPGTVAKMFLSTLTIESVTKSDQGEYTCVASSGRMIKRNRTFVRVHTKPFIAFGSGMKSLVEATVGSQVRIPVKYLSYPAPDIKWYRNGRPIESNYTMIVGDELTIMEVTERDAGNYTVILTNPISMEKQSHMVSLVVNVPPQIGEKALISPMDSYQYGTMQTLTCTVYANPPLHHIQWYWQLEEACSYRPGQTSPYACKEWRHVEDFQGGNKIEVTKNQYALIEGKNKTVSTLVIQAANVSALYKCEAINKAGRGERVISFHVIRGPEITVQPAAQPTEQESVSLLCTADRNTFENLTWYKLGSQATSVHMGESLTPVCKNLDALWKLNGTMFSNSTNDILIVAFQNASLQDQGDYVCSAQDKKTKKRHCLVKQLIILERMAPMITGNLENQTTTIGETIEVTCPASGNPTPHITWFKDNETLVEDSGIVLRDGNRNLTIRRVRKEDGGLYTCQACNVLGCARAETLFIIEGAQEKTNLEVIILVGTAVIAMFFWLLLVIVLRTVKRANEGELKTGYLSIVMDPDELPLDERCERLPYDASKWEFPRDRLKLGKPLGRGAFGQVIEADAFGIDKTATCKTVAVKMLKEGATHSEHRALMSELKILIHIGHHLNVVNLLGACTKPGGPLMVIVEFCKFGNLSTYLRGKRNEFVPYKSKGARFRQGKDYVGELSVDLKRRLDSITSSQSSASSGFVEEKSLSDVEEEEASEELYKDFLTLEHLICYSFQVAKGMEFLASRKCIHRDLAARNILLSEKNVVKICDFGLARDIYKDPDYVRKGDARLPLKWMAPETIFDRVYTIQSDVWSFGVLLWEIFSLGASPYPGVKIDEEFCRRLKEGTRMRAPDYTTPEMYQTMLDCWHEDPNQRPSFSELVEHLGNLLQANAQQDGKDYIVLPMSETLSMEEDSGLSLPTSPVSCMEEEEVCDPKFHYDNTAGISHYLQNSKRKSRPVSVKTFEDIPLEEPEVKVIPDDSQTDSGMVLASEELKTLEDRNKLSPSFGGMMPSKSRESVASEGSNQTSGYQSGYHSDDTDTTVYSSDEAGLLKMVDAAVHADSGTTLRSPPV

pIC50 ([1]; Homo sapiens, HUVEC) | pIC50 (HER2 kinase) | Compound | pIC50 ([2]; Homo sapiens, HUVEC) | further results
5.60 | – | O=C1Nc2ccccc2C1=Cc1ccc(O)cc1Cl [SU4932, 3-(2-chloro-4-hydroxybenzylidenyl)-2-indolinone] | 4.34 | EpH4-VEGF % inhibition @ mg/kg (EpH4-VEGF; @ 75 mg/kg): 42% @ 75; EpH4-VEGF % inhibition @ mg/kg (EpH4-VEGF; @ 50/50 mg/kg): 42% @ 50/50
– | – | O=C1Nc2ccccc2C1=Cc1ccc(Br)cc1 [SU4942, 3-(4-Bromobenzylidenyl)-2-indolinone] | – | EpH4-VEGF % inhibition @ mg/kg (EpH4-VEGF; @ 25 mg/kg): 47% @ 25; EpH4-VEGF % inhibition @ mg/kg (EpH4-VEGF; @ 50 mg/kg): 46% @ 50; pIC50 [2]: 5.34
– | – | CC(=O)Nc1ccc(C=C2C(=O)Nc3ccccc32)cc1 [SU4944, 3-(4-Acetylaminobenzylidenyl)-2-indolinone] | – | pIC50 [1]: 4.83; pIC50 (FLK-1 receptor): 5.07
5.10 | 4.65 | CN1C(=O)C(=Cc2ccc(Br)cc2)c2ccccc21 [SU4956, 3-(4-Bromobenzylidenyl)-1-methyl-2-indolinone] | 4.89 | –
4.34 | 4.40 | CN1C(=O)C(=Cc2ccc(N3CCOCC3)cc2)c2ccccc21 [SU4982, 1-Methyl-3-[4-(morpholin-4-yl)benzylidenyl]-2-indolinone] | 4.56 | –
5.64 | 4.29 | CCOc1ccccc1C=C1C(=O)Nc2ccccc21 [SU5204, 3-(2-Ethoxybenzylidenyl]-2-indolinone] | 6.15 | –
5.66 | 4.05 | Cc1csc(C=C2C(=O)Nc3ccccc32)c1 [SU5401, 3-[(4-Methylthien-2-yl)methylene]-2-indolinone] | – | –
> 6.10 | – | Cc1c(CCC(=O)O)c[nH]c1C=C1C(=O)Nc2ccccc21 [SU5402, 3-[(3-(2-carboxyethyl)-4-methylpyrrol-5-yl)methylene]-2-indolinone] | 5.70 | pIC50 (FGFR): 4.40
